Where a SMILES comes first, the peptide text is derived from it. The star is where a group is joined. C16 diacid = O=C(O)CCCCCCCCCCCCCCC(=O)*

These results are taken from patent US12187773B2, “Modified GIP peptide analogues” (Antag Therapeutics ApS, priority 2018, dated 2025).

Holding throughout (format): cell-based
The target of test [1] is T1, human GIP receptor (Homo sapiens, UniProt P48546).
T1 sequence (P48546 22-466): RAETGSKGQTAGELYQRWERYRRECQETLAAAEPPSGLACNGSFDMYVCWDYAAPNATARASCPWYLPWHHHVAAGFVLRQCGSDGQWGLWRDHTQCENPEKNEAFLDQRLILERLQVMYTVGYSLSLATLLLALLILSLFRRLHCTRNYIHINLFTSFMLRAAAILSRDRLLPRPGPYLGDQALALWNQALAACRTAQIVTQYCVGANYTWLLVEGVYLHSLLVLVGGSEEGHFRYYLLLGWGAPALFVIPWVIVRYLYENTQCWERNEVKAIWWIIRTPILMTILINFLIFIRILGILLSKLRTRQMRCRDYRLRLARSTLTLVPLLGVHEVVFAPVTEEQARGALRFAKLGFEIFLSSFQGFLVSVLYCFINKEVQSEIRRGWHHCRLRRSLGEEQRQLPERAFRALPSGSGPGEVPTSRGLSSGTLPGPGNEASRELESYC
The test is described as follows: cAMP agonism (CisBio cAMP Dynamic 2 HTRF assay). As to conditions: HEK293, read-out: cAMP agonism, % Efficacy, Table 1C, HEK-293 cells. How it is done:
To test for agonistic properties at the GIP receptor, compounds were diluted and added to cells as described above and incubated for 30 min at 37° C. The resulting increase in intracellular cAMP was determined using the CisBio cAMP Dynamic 2 HTRF Assay Kit as described above.

Test [2] addresses T1, human GIP receptor. The test is described as follows: cAMP antagonism (CisBio cAMP Dynamic 2 HTRF assay). Also on record: pCMV-Script vector. The conditions noted are these: CisBio, HEK-293 cells; for IC50: cAMP antagonism, agonist GIP1-42 at EC50. How it is done:
The in vitro functional activity of compounds towards human GIP receptor can also be determined in HEK-293 cells transiently expressing the receptor. On the day of the assay, cells were resuspended in HBSS buffer (Gibco, 14025-50) supplemented with 20 mM HEPES (Gibco, 15630-106), 0,1% Pluronic F-68 (Gibco, 24040-032) and 0,1% casein (Sigma, C4765), and plated in 384-well plates at a density of 5000 cells/well. The GIP peptide analogues of the present disclosure were diluted in HBSS buffer supplemented with 20 mM HEPES, 0,1% pluronic, 0,1% casein and 500 uM IBMX. […] The resulting decrease in intracellular cAMP was quantitatively determined using the CisBio cAMP Dynamic 2 HTRF Assay Kit. The assay is based on a competition between native cAMP produced by cells and cAMP labeled with the dye d2 for binding to a cryptate labeled antibody. The specific signal (i.e. energy transfer signal) is inversely proportional to the concentration of cAMP in the sample.
The cAMP-d2 conjugate and the antibody anti-cAMP-Cryptate, both diluted in lysis buffer provided in the kit, were added to the cells according to the manufacturer's protocol. The resulting competitive assay was incubated for 60 minutes at room temperature, and the signal was detected by using a PerkinElmer Envision® instrument with excitation at 320 nm and emission at 665 nm and 620 nm. The HTRF ratio (emission at 665 nm/620 nm*10,000) is inversely proportional to the amount of cAMP present and is converted to nM cAMP per well using a cAMP standard curve. The dose-response curves were fitted using the non-linear regression analysis (four-logistic parameter equation) in GraphPad Prism, whereby pIC50 values were estimated.

The target in test [3] is T1, human GIP receptor. The test is described as follows: cAMP accumulation, agonism (DiscoveRx HitHunter cAMP XS assay). Also on record: host or cells: COS-7 (transient, calcium phosphate; pCMV-Script vector). The conditions noted are these: COS-7, read-out: cAMP agonism, Emax. How it is done:
Transient transfected COS-7 cells expressing the human GIP receptor were seeded in white 96-well plates with a density of 3.5*10^4/well. The day after, the cells were washed twice with Hepes buffered saline (HBS) buffer and incubated with HBS and 1 mM 3-isobutyl-1-methylxanthine (IBMX) for 30 min at 37° C. To test for agonistic properties, ligands were added and incubated for 30 min at 37° C. In order to test for antagonistic properties, the cells were preincubated with the antagonists for 10 min prior to the addition of the agonist and subsequent incubated for 20 additional min. The HitHunter™ cAMP XS assay (DiscoveRx) was carried out according to the manufacturer's instructions.
In order to develop a GIP receptor antagonist with improved antagonistic properties, individual amino acid substitutions were conducted on GIP(3-30)NH2 and in particular at positions: 16, 18, 30 or 3, 16, 18, 30. The obtained peptides were lipidated at position 18 directly or via a linker. Both the agonistic and antagonistic profiles of the compounds were tested in cAMP accumulation experiments done in transiently transfected COS-7 cells expressing the human GIP receptor. To investigate if these mutated analogues still retained their antagonistic properties, their ability to inhibit a GIP-mediated cAMP response corresponding to 50-80% of maximum activation was examined.

As for `CC[C@H](C)[C@H](NC(=O)[C@H](CO)NC(=O)[C@H](Cc1ccc(O)cc1)NC(=O)[C@H](CC(=O)O)NC(=O)[C@H](CO)NC(=O)[C@@H](NC(=O)[C@H](Cc1ccccc1)NC(=O)[C@@H](NC(=O)CNC(=O)[C@@H]1CCCN1)[C@@H](C)O)[C@@H](C)CC)C(=O)N[C@@H](C)C(=O)N[C@@H](CCSC)C(=O)N[C@@H](CC(=O)O)C(=O)N[C@@H](CCCNC(=N)N)C(=O)N[C@H](C(=O)N[C@@H](CCCCNC(=O)CCCCCCCCCCCCCCC(=O)O)C(=O)N[C@@H](CCC(N)=O)C(=O)N[C@@H](CCC(N)=O)C(=O)N[C@@H](CC(=O)O)C(=O)N[C@@H](Cc1ccccc1)C(=O)N[C@H](C(=O)N[C@@H](CC(N)=O)C(=O)N[C@@H](Cc1c[nH]c2ccccc12)C(=O)N[C@@H](CC(C)C)C(=O)N[C@@H](CC(C)C)C(=O)N[C@@H](C)C(=O)N[C@@H](CCC(N)=O)C(=O)N[C@@H](CCCNC(=N)N)C(=O)O)C(C)C)[C@@H](C)CC` [AT261] (H-PGTFISDYSIAMDRIK(C16 diacid)QQDFVNWLLAQR-OH; N-terminus assumed), the Emax was found to be 0% at human GIP receptor [1] and 24% at human GIP receptor [3]. Further, at human GIP receptor [2] (Table 1C), the “cAMP antagonism, % inhib” value amounted to 62%. This molecule registered a half-maximal inhibitory concentration (IC50) on human GIP receptor [2] (nM (IC50), Table 1C) of 200 nM.
Regarding `CC[C@H](C)[C@H](NC(=O)[C@H](CO)NC(=O)[C@H](Cc1ccc(O)cc1)NC(=O)[C@H](CC(=O)O)NC(=O)[C@H](CO)NC(=O)[C@@H](NC(=O)[C@H](Cc1ccccc1)NC(=O)[C@@H](NC(=O)CNC(=O)CN)[C@@H](C)O)[C@@H](C)CC)C(=O)N[C@@H](C)C(=O)N[C@@H](CCSC)C(=O)N[C@@H](CC(=O)O)C(=O)N[C@@H](CCCNC(=N)N)C(=O)N[C@H](C(=O)N[C@@H](CCCCNC(=O)CC[C@H](NC(=O)CCCCCCCCCCCCCCC(=O)O)C(=O)O)C(=O)N[C@@H](CCC(N)=O)C(=O)N[C@@H](CCC(N)=O)C(=O)N[C@@H](CC(=O)O)C(=O)N[C@@H](Cc1ccccc1)C(=O)N[C@H](C(=O)N[C@@H](CC(N)=O)C(=O)N[C@@H](Cc1c[nH]c2ccccc12)C(=O)N[C@@H](CC(C)C)C(=O)N[C@@H](CC(C)C)C(=O)N[C@@H](C)C(=O)N[C@@H](CCC(N)=O)C(=O)N[C@@H](CCCNC(=N)N)C(=O)O)C(C)C)[C@@H](C)CC` [AT263] (HELM PEPTIDE1{G.G.T.F.I.S.D.Y.S.I.A.M.D.R.I.K.Q.Q.D.F.V.N.W.L.L.A.Q.R}|PEPTIDE2{[O=C(O)CCCCCCCCCCCCCCC(=O)[*:2]].[gGlu]}$PEPTIDE1,PEPTIDE2,16:R3-2:R2$$$V2.0; N-terminus assumed), the figures for the Emax on human GIP receptor [1] and on human GIP receptor [3] were 0% and 8%, respectively. Further, the “cAMP antagonism, % inhib” value at human GIP receptor [2] (Table 1C) was 69%. The half-maximal inhibitory concentration (IC50) at human GIP receptor [2] (nM (IC50), Table 1C) is 21 nM; at human GIP receptor [2] (pIC50, Table 1C), 200 nM.
Consider `CC[C@H](C)[C@H](NC(=O)[C@H](CO)NC(=O)[C@H](Cc1ccc(O)cc1)NC(=O)[C@H](CC(=O)O)NC(=O)[C@H](CO)NC(=O)[C@@H](NC(=O)[C@H](Cc1ccccc1)NC(=O)[C@@H](NC(=O)CNC(=O)[C@@H](N)CO)[C@@H](C)O)[C@@H](C)CC)C(=O)N[C@@H](C)C(=O)N[C@@H](CCSC)C(=O)N[C@@H](CC(=O)O)C(=O)N[C@@H](CCCNC(=N)N)C(=O)N[C@H](C(=O)N[C@@H](CCCCNC(=O)CC[C@H](NC(=O)CCCCCCCCCCCCCCC(=O)O)C(=O)O)C(=O)N[C@@H](CCC(N)=O)C(=O)N[C@@H](CCC(N)=O)C(=O)N[C@@H](CC(=O)O)C(=O)N[C@@H](Cc1ccccc1)C(=O)N[C@H](C(=O)N[C@@H](CC(N)=O)C(=O)N[C@@H](Cc1c[nH]c2ccccc12)C(=O)N[C@@H](CC(C)C)C(=O)N[C@@H](CC(C)C)C(=O)N[C@@H](C)C(=O)N[C@@H](CCC(N)=O)C(=O)N[C@@H](CCCNC(=N)N)C(=O)O)C(C)C)[C@@H](C)CC` [AT265] (HELM PEPTIDE1{S.G.T.F.I.S.D.Y.S.I.A.M.D.R.I.K.Q.Q.D.F.V.N.W.L.L.A.Q.R}|PEPTIDE2{[O=C(O)CCCCCCCCCCCCCCC(=O)[*:2]].[gGlu]}$PEPTIDE1,PEPTIDE2,16:R3-2:R2$$$V2.0; N-terminus assumed), for which the results for the Emax on human GIP receptor [1] and on human GIP receptor [3] were 8% and 10%, respectively. Moreover, the “cAMP antagonism, % inhib” value at human GIP receptor [2] (Table 1C) is 73%. Also, the IC50 on human GIP receptor [2] (nM (IC50), Table 1C) was found to be 58.4 nM.
As to `CC[C@H](C)[C@H](NC(=O)[C@H](CO)NC(=O)[C@H](Cc1ccc(O)cc1)NC(=O)[C@H](CC(=O)O)NC(=O)[C@H](CO)NC(=O)[C@@H](NC(=O)[C@H](Cc1ccccc1)NC(=O)[C@@H](NC(=O)CNC(=O)[C@@H]1CCCN1)[C@@H](C)O)[C@@H](C)CC)C(=O)N[C@@H](C)C(=O)N[C@@H](CCSC)C(=O)N[C@@H](CC(=O)O)C(=O)N[C@@H](CCCNC(=N)N)C(=O)N[C@H](C(=O)N[C@@H](CCCCNC(=O)CC[C@H](NC(=O)CCCCCCCCCCCCCCC(=O)O)C(=O)O)C(=O)N[C@@H](CCC(N)=O)C(=O)N[C@@H](CCC(N)=O)C(=O)N[C@@H](CC(=O)O)C(=O)N[C@@H](Cc1ccccc1)C(=O)N[C@H](C(=O)N[C@@H](CC(N)=O)C(=O)N[C@@H](Cc1c[nH]c2ccccc12)C(=O)N[C@@H](CC(C)C)C(=O)N[C@@H](CC(C)C)C(=O)N[C@@H](C)C(=O)N[C@@H](CCC(N)=O)C(=O)N[C@@H](CCCNC(=N)N)C(=O)O)C(C)C)[C@@H](C)CC` [AT267] (HELM PEPTIDE1{P.G.T.F.I.S.D.Y.S.I.A.M.D.R.I.K.Q.Q.D.F.V.N.W.L.L.A.Q.R}|PEPTIDE2{[O=C(O)CCCCCCCCCCCCCCC(=O)[*:2]].[gGlu]}$PEPTIDE1,PEPTIDE2,16:R3-2:R2$$$V2.0; N-terminus assumed), the Emax on human GIP receptor [1] worked out at 4%; at human GIP receptor [3], 16%. The “cAMP antagonism, % inhib” value on human GIP receptor [2] (Table 1C) worked out at 52%.
For `CC[C@H](C)[C@H](NC(=O)[C@H](CO)NC(=O)[C@H](Cc1ccc(O)cc1)NC(=O)[C@H](CC(=O)O)NC(=O)[C@H](CO)NC(=O)[C@@H](NC(=O)[C@H](Cc1ccccc1)NC(=O)[C@@H](NC(=O)CNC(=O)[C@@H](N)CO)[C@@H](C)O)[C@@H](C)CC)C(=O)N[C@@H](C)C(=O)N[C@@H](CCSC)C(=O)N[C@@H](CC(=O)O)C(=O)N[C@@H](CCCNC(=N)N)C(=O)N[C@H](C(=O)N[C@@H](CCCCNC(=O)COCCOCCNC(=O)CC[C@H](NC(=O)CCCCCCCCCCCCCCC(=O)O)C(=O)O)C(=O)N[C@@H](CCC(N)=O)C(=O)N[C@@H](CCC(N)=O)C(=O)N[C@@H](CC(=O)O)C(=O)N[C@@H](Cc1ccccc1)C(=O)N[C@H](C(=O)N[C@@H](CC(N)=O)C(=O)N[C@@H](Cc1c[nH]c2ccccc12)C(=O)N[C@@H](CC(C)C)C(=O)N[C@@H](CC(C)C)C(=O)N[C@@H](C)C(=O)N[C@@H](CCC(N)=O)C(=O)N[C@@H](CCCNC(=N)N)C(=O)O)C(C)C)[C@@H](C)CC` [AT271] (HELM PEPTIDE1{S.G.T.F.I.S.D.Y.S.I.A.M.D.R.I.K.Q.Q.D.F.V.N.W.L.L.A.Q.R}|PEPTIDE2{[O=C(O)CCCCCCCCCCCCCCC(=O)[*:2]].[gGlu].[O=C(COCCOCCN[*:1])[*:2]]}$PEPTIDE1,PEPTIDE2,16:R3-3:R2$$$V2.0; N-terminus assumed), the Emax on human GIP receptor [1] is 2%; on human GIP receptor [3], 9%. The “cAMP antagonism, % inhib” value at human GIP receptor [2] (Table 1C) is given as 73%. For the same molecule, the 50% inhibitory concentration (IC50) on human GIP receptor [2] (nM (IC50), Table 1C) came out at 85.8 nM.
